What was measured:
[1] = test system: BZLF1; test: EBV reactivation by BZLF1 gRNA transfection (Casilio) in C666-1 cells stably expressing HA-dCas9-EGFP and 3×FLAG-PUFa-p65HSF1; format: cell-based, Epstein-Barr virus (EBV)
Experimental: SNU-719 and C666-1 cells stably expressing HA-dCas9-EGFP and 3×FLAG-PUFa-p65HSF1 were cultivated in RPMI-1640 (Sigma) with 10% fetal bovine serum (FBS) (Gibco) and 1% GlutaMAX (Gibco) and cultured in 37° C. incubator with 5% CO2. EBV reactivation experiments were conducted with cells seeded into 6-well plates at 2×10^6 cells per well the day before transfection. 2 micrograms (μg) of control gRNA or individual BZLF1 gRNA (A3) (SEQ ID NO: 8), gRNA (A4) (SEQ ID NO: 9), gRNA (A5) (SEQ ID NO: 10), or gRNA (A6) (SEQ ID NO: 11) gRNAs were transfected into cells with Lipofectamine 2000 (Invitrogen). After transfection, cells were grown for 48 hours and harvested for protein extraction or FACS (FIGS. 4, 5, 7A-7E).
FACS Analysis. Cells were harvested with trypsin and fixed for 15 minutes (mins) with 4% paraformaldehyde. The cells were then centrifuged at 2000×g for 5 mins and resuspended in 3% BSA for 30 mins. The resuspend cells were centrifuged again at 2000×g for 5 mins. Samples were stained with Alexa-647 conjugated anti-BZLF1 monoclonal antibody for 2 hours. Samples were analyzed on a FACSCalibur flow cytometer using CellQuest Pro software (BD Bioscience). Thousands of events were collected in each run.
Quantitative RT-PCR Analysis. Cells were harvested with trypsin, centrifuged at top speed for 1 min, and RNA was extracted using TRIzol reagent (Invitrogen). 2 μg of total RNA was used to produce a cDNA library using Superscript III Reverse Transcriptase. SYBR Green gene expression assays (Roche) were performed using the GAPDH primers as endogenous control and primers targeting the EBV lytic genes BZLF1, BGLF4, BLRF2 were used to assess EBV reactivation. Power SYBR Green master mix was used for performing real-time quantitative PCR (RT-qPCR). Each reaction was performed with 2 μL of 1:3 diluted cDNA. The RT-qPCR samples were analyzed with a Roche LC480 PCR instrument. Gene expression levels were calculated by “delta Ct” algorithm and normalized to control samples.

[2] = test system: C17 cells; test: Growth proliferation, viability, apoptosis, cell cycle and clonogenic assays in C17 cells; format: cell-based
Experimental: Growth proliferation assay. SNU-719 HA-dCas9-Tet-on-PUFa-p65HSF1-BZLF1 gRNA (3) or C666-1 HA-dCas9-Tet-on-PUFa-p65HSF1-BZLF1 gRNA (A5) cells were seeded into individual wells of a 96-well plate for at 1×10^5 cells per well the day before being treated with 1 μg/mL DOX and Ganciclovir (GCV). Cells were counted with the cell counting kit-8 (CCK-8, Sigma) at day 6, day 7, and day 8 (FIGS. 8H-8I).
Active caspase-3 analysis. To detect the apoptosis in DOX treated dCas9-Tet on-p65HSF1-BZLF1sgRNA3 SNU719 and C17 cells, active caspase-3 apoptosis kit (BD Pharmingen #550914) was used. Untreated and treated cells were trypsinized and then fixed with fixation buffer in ice for 20 mins and washed with washing buffer twice. Cells were then stained with the PE conjugated rabbit anti active caspase-3 antibody in dark for 30 mins. Stained cells were collected with BD LSRFortessa.
Cell cycle analysis. After 96 hours from induction of DOX, dCas9-Tet on-p65HSF1-BZLF1sgRNA3 SNU719 and C17 cells were trypsinized and then fixed with 75% cold ethanol for 2 hrs at −20° C. Cells were washed three times with cold PBS and then resuspended in PBS containing 100 μg/mL RNase A and 10 μg/mL propidium iodide for 10 min at room temperature. Stained cells were collected with BD LSRFortessa.
Clonogenic assays. Cells were seeded at a density of 500 cells/well in 6-well plates the day before treatment. Then cells were stained with 0.5% crystal violet 14 days after treatment, and at least 50 cells were considered as a single colony

[3] = test system: BZLF1; test: p65HSF1 and BZLF1 sgRNA transfection into C666-1 cells stably expressing HA-dCas9-EGFP; format: cell-based, Epstein-Barr virus (EBV); conditions: compared among BZLF1 sgRNAs
Experimental: (§1) SNU-719 and C666-1 cells stably expressing HA-dCas9-EGFP were cultivated in RPMI-1640 (Sigma) with 10% fetal bovine serum (FBS) (Gibco) and 1% GlutaMAX (Gibco) and cultured in a 37° C. incubator with 5% CO2. EBV reactivation experiments were conducted with cells seeded into 6-well plates at 2×10^6 cells per well the day before transfection. 1 microgram (μg) of p65HSF1 and 1 microgram (μg) of control sgRNA or individual BZLF1 sgRNA1 (SEQ ID NO: 8), sgRNA2 (SEQ ID NO: 9), sgRNA 3 (SEQ ID NO: 10), or sgRNA4 (SEQ ID NO: 11) were transfected into cells with Lipofectamine 2000 (Invitrogen). After transfection, cells were grown for 48 hours and harvested for FACS, protein extraction, or RNA extraction (FIGS. 14A-14C). […] The expression of EBV immediate early protein BRLF1 (Rta) and early protein BGLF4 (PK) were also detectable (FIG. 14B).

[4] = test system: BZLF1; test: p65HSF1 and BZLF1 sgRNA transfection into SNU-719 cells stably expressing HA-dCas9-EGFP; format: cell-based, Epstein-Barr virus (EBV); conditions: compared among BZLF1 sgRNAs
Experimental: as §1

In the case of “BZLF1 gRNA (A5): BZLF1 gRNA spacer sequence SEQ ID NO: 10, GAAACTATGCATGAGCCAC (chemistry not given here)”, the “EBV reactivation, induction of BZLF1 (Zta) protein expression” value ([1]; C666-1, 2 μg gRNA, 48 hours after transfection, protein extraction or FACS) is reported as “reactivate EBV expression at detectable levels”, the “BZLF1 (ZTa) protein expression by immunostaining” value ([1]; C666-1, FIG. 7D) is reported as “activated BZLF1 (ZTa) protein expression” and the “expression of the downstream EBV genes BGLF4 and BLRF2” value ([1]; RT-qPCR, FIG. 7F, cell line not stated) is reported as “induces the expression of the downstream EBV genes BGLF4 and BLRF2”. The “cell cycle by flow cytometry” value ([2]; DOX induced, FIG. 17B) was “sub G1 phase accumulation and S phase decrease”, the “cell proliferation, apoptosis and growth of cells in vitro” value ([2]; DOX-induced EBV reactivation) was “suppressed the cell proliferation, induced apoptosis, and slowed the growth of cells” and the monolayer colony formation ([2]; after DOX induction, FIG. 17E) was “dramatic suppression”. For the same substance, the “expression level of BZLF1 in protein and RNA samples” value [3] was “highest expression level of BZLF1” and the “expression level of BZLF1 in protein and RNA samples” value [4] was “highest expression level of BZLF1”.

— US20230114264A1, “ACTIVATION OF LYTIC GENES IN CANCER CELLS” (priority 2020, published 2023)
